In ChEMBL document CHEMBL1201862, “PubChem BioAssay data set” (2004):
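Where inhibition never reached the appropriate level, the endpoint shown equals the highest concentration tested. Otherwise, values were interpolated linearly from a five-concentration, 48-hour dose response in 96-well plates. Here, GI50 denotes the concentration required for 50% inhibition of growth.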 Activity calls are given as the source filed them. Rule as the data show it: active = GI50 up to about 1.1 µM and inactive = higher.

Legend:
Test in all cases: NCI-60 cell line screen, 48 h
HOP-62 = test system: HOP-62
NCI-H23 = test system: NCI-H23
SF-539 = test system: SF-539
SK-MEL-28 = test system: SK-MEL-28
SNB-19 = test system: SNB-19
HT-29 = test system: HT-29
BT-549 = test system: BT-549
HCT-116 = test system: HCT-116
UACC-62 = test system: UACC-62
DU-145 = test system: DU-145
NCI-H460 = test system: NCI-H460
NCI-H522 = test system: NCI-H522
U-251 = test system: U-251
TK-10 = test system: TK-10
NCI/ADR-RES = test system: NCI/ADR-RES
SR = test system: SR
PC-3 = test system: PC-3
RPMI-8226 = test system: RPMI-8226

Measured: GI50

OCC(Cn1cncn1)(c1ccc(F)cc1F)n1cncn1 (configuration not stated)
inactive: HOP-62 > 100 µM | NCI-H23 > 100 µM | SF-539 > 100 µM | SK-MEL-28 > 100 µM | SNB-19 > 100 µM | HT-29 > 100 µM | BT-549 > 100 µM | HCT-116 > 100 µM | UACC-62 > 100 µM | DU-145 > 100 µM | NCI-H460 > 100 µM | NCI-H522 > 100 µM | U-251 > 100 µM | TK-10 > 100 µM | NCI/ADR-RES > 100 µM | SR > 100 µM | PC-3 > 100 µM | RPMI-8226 > 100 µM

CC(C)(C)OC(=O)NC(Cc1ccc(OCc2ccccc2)cn1)C(=O)N1CCCC1 (configuration not stated)
inactive: HOP-62 23.5 µM | NCI-H23 45.7 µM | SF-539 23.2 µM | SK-MEL-28 > 100 µM | SNB-19 > 100 µM | HT-29 54 µM | BT-549 31.1 µM | HCT-116 79.3 µM | UACC-62 54.3 µM | DU-145 > 100 µM | NCI-H460 78 µM | NCI-H522 35.3 µM | U-251 86.7 µM | TK-10 > 100 µM | NCI/ADR-RES 25.1 µM | SR > 100 µM | PC-3 33.4 µM | RPMI-8226 54.6 µM

CN1C2=Nc3n(C)c4ccccc4[n+]3CN2c2ccccc21
inactive: HOP-62 > 100 µM | NCI-H23 26.5 µM | SF-539 69.5 µM | SNB-19 35.3 µM | HT-29 38 µM | BT-549 > 100 µM | HCT-116 43.2 µM | UACC-62 17 µM | DU-145 43.3 µM | NCI-H460 24.2 µM | NCI-H522 16.8 µM | U-251 25.2 µM | TK-10 > 100 µM | NCI/ADR-RES > 100 µM | SR 28.3 µM | PC-3 47.3 µM | RPMI-8226 41.1 µM

CCOC(=O)[C@@H]1ON2OC(OC3CCCC3(c3ccccc3)c3ccccc3)C(OC(C)=O)[C@H]3OC(=O)[C@@H]1C32 (some centres not stated)
inactive: HOP-62 > 100 µM | NCI-H23 > 100 µM | SF-539 56.6 µM | SK-MEL-28 > 100 µM | SNB-19 > 100 µM | HT-29 62.1 µM | BT-549 > 100 µM | HCT-116 29.6 µM | UACC-62 > 100 µM | DU-145 > 100 µM | NCI-H460 > 100 µM | NCI-H522 21.2 µM | U-251 42.8 µM | TK-10 > 100 µM | NCI/ADR-RES > 100 µM | SR > 100 µM | PC-3 > 100 µM | RPMI-8226 > 100 µM

Cc1cn2c(/C=C3/C(=O)Nc4ccccc43)c(-c3ccccc3)nc2s1
inactive: HOP-62 38.5 µM | NCI-H23 48.4 µM | SF-539 19.2 µM | SK-MEL-28 > 100 µM | SNB-19 24.3 µM | HT-29 > 100 µM | BT-549 32.9 µM | HCT-116 62.4 µM | UACC-62 67.6 µM | DU-145 78.3 µM | NCI-H460 78.2 µM | NCI-H522 > 100 µM | U-251 29.3 µM | TK-10 22.4 µM | NCI/ADR-RES 37.5 µM | SR > 100 µM | PC-3 57.3 µM | RPMI-8226 > 100 µM

CN1CC2=C(N=C(S)NC2c2ccccc2)/C(=C/c2ccccc2)C1 (configuration not stated)
inactive: HOP-62 > 100 µM | NCI-H23 56.2 µM | SF-539 83.9 µM | SK-MEL-28 27.6 µM | SNB-19 > 100 µM | HT-29 27 µM | BT-549 > 100 µM | HCT-116 13 µM | UACC-62 28.5 µM | DU-145 > 100 µM | NCI-H460 32.1 µM | NCI-H522 43 µM | U-251 54.5 µM | TK-10 26 µM | NCI/ADR-RES > 100 µM | SR 30.4 µM | PC-3 15 µM | RPMI-8226 46.6 µM
